Tests used:
[1] = Maximum loading giving stable nanoparticles (FNP); assay type: physicochemical; settings: PBA-b-PAA nanoparticles by FNP
Source text: Increasing the percentage of core material necessitated the formation of larger particles. […] This may be because the addition of core material allows the PAA to more tightly pack due to charge shielding effects. Very high loadings of both lysozyme and vancomycin were obtained. Loading of lysozyme as high as 75 wt % was obtained without the formation of large precipitates, however, the particles were too large to analyze using dynamic light scattering (DLS).

[2] = Solubility in organic solvents; assay type: physicochemical; settings: in chloroform and acetone

Row | Compound | loading obtained with stable particles / without large precipitates [1] | solubility [2]
1 | CN[C@H](CC(C)C)C(=O)N[C@H]1C(=O)N[C@@H](CC(N)=O)C(=O)N[C@H]2C(=O)N[C@H]3C(=O)N[C@H](C(=O)N[C@H](C(=O)O)c4cc(O)cc(O)c4-c4cc3ccc4O)[C@H](O)c3ccc(c(Cl)c3)Oc3cc2cc(c3O[C@@H]2O[C@H](CO)[C@@H](O)[C@H](O)[C@H]2O[C@H]2C[C@](C)(N)[C@H](O)[C@H](C)O2)Oc2ccc(cc2Cl)[C@H]1O [Vancomycin, vancomycin] | up to 90 wt % | poorly soluble
2 | lysozyme | ≤ 75 wt % | 

Source: patent US12605344B2, “Nanoparticles encapsulating soluble biologics, therapeutics, and imaging agents” (The Trustees of Princeton University, priority 2014, dated 2026)
